The values that follow come from patent publication US20110082410A1 (priority 2009, published 2011).

The subject of data set [1] is superficial basal cell carcinomas. As to conditions: low irradiance of range 10-50 mW/cm^2; cited from earlier work.
For data set [2] the following is noted: local anesthesia: infiltrating, spraying or topical solution for transdermal delivery; cited from earlier work.
The conditions of data set [3]: topical, compared to ALA; cited from earlier work.
For another data set, the system named is hair follicle. Kind of data set: Pulsed PDT for removal of unwanted hair with the photosensitizer methylene blue: pain during irradiation. As to conditions: for PAIN: 665 nm.

Turning to `NCC(=O)CCC(=O)O` [delta-ALA, δ-Aminolevulinic Acid], the “Pain induced by PDT treatment” value in data set [1] was “no significant pain was reported”.
Take `CCN(CC)CC(=O)Nc1c(C)cccc1C` [lidocaine]: in data set [2], the “Improvement of PDT-associated discomfort and pain” value is on record as “not produced any significant improvement”.
For `COC(=O)CCC(=O)CN` [methyl-ester-ALA], the Pain during illumination result in data set [3] is recorded as “significantly less pain compared to ALA”.
For `CN(C)c1ccc2nc3ccc(=[N+](C)C)cc-3sc2c1` [methylene blue], the PAIN entry is listed as “very painful” with hair follicle (5 s CW irradiation, 10 W/cm^2); “Very high to unbearable” in the data set with hair follicle (trial 1: 2 pulses, pulse on 2.5 s, pulse off 0.5 s, 0.33 Hz, 50 J/cm^2, 10 W/cm^2); “High” in the data set on hair follicle (trial 2: 5 pulses, pulse on 1 s, pulse off 0.5 s, 0.67 Hz, 50 J/cm^2, 10 W/cm^2); “Intermediate to small” in the data set on hair follicle (trial 3: 10 pulses, pulse on 0.5 s, pulse off 0.5 s, 1.00 Hz, 50 J/cm^2, 10 W/cm^2); “None” in the data set with hair follicle (trial 4: 14 pulses, pulse on 0.35 s, pulse off 0.5 s, 1.18 Hz, 50 J/cm^2, 10 W/cm^2); “None” in the data set with hair follicle (trial 5: 14 pulses, pulse on 0.35 s, pulse off 0.1 s, 2.22 Hz, 50 J/cm^2, 10 W/cm^2). Besides, the “Effectiveness of pulsed PDT for removal of unwanted hair” value in the data set on hair follicle (pulsed radiation) is “effective without pain”.
